Results published in publication PMC8234620, “An Integrated Peptidomics and In Silico Approach to Identify Novel Anti-Diabetic Peptides in Parmigiano-Reggiano Cheese” (Biology, 2021).
Ends that are not written are not given here. Peptide text beside a SMILES is read from it.

Columns and labels:
[1] = design: method as in BIOPEP database and Milk Bioactive Peptides Database; conditions: ref BIOPEP database and Milk Bioactive Peptides Database; cited from earlier work
[2] = tested on: angiotensin converting enzyme; conditions: cited from earlier work; for Bioactivity: ACE-inhibition: ref BIOPEP database and Milk Bioactive Peptides Database; for IC50 values against ACE: ref [47],[48],[49]
DPP-IV = conditions: cited from earlier work; for Bioactivity: DPP-IV-inhibition: ref BIOPEP database and Milk Bioactive Peptides Database; for IC50: ref [41],[51],[52], read-out: IC50 DPP-IV, previously reported
[3] = design: method as in BIOPEP database and Milk Bioactive Peptides Database; conditions: ref BIOPEP database and Milk Bioactive Peptides Database; cited from earlier work; remark: listed apart in the source
[4] = design: method as in BIOPEP database and Milk Bioactive Peptides Database; conditions: ref BIOPEP database and Milk Bioactive Peptides Database; cited from earlier work; remark: listed apart in the source
[5] = design: method as in BIOPEP database and Milk Bioactive Peptides Database; conditions: ref BIOPEP database and Milk Bioactive Peptides Database; cited from earlier work; remark: listed apart in the source
rat intestinal DPP-IV = biological target: T1, rat intestinal DPP-IV (Rattus norvegicus, UniProt P14740); experiment: Dipeptidyl peptidase IV (DPP-IV) assay; format: biochemical; conditions: synthetic peptides
T1 construct: 10 μL of rat intestinal DPP-IV (0.1 U/mL in the assay); from tissue; host or cells: rat intestine
T1 sequence (P14740 whole entry): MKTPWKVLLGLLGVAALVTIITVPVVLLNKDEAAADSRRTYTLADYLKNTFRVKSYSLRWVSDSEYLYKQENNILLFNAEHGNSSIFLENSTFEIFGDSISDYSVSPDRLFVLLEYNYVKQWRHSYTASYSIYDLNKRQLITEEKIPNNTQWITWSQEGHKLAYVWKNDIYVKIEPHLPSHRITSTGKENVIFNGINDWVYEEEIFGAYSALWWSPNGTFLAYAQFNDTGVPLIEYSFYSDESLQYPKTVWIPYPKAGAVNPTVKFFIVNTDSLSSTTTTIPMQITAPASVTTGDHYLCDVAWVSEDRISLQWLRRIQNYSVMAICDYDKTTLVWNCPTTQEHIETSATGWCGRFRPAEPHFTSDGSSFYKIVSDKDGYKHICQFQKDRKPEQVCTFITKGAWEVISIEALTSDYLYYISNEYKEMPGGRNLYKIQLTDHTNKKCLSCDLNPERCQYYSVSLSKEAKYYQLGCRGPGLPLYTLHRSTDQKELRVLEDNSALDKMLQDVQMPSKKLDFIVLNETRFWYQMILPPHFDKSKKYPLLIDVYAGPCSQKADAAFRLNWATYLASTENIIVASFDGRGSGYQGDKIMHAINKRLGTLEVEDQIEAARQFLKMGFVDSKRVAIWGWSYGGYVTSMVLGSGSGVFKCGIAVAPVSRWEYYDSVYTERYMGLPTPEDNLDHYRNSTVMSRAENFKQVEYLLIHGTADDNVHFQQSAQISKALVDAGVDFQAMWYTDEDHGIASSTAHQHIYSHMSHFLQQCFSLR
Description: DPP-IV assay was performed as described in Tagliazucchi et al.. Briefly, in a 96-well plate, 10 μL of rat intestinal DPP-IV (0.1 U/mL in the assay) were mixed with 145 μL of Tris-HCl buffer (pH 7.0; 0.1 mol/L) and 40 μL of different concentrations of water-soluble low-molecular weight peptide extracts. After 20 min of incubation at 37 °C, the reaction was started by the addition of 5 μL of glycine-proline-p-nitroanilide (6.4 mmol/L). The amount of released p-nitroanilide was determined after 20 min of incubation at 37 °C by reading at 405 nm in a microplate reader. Results were expressed as IC50 as reported above.
(§1) Selected peptides were then synthesized (Bio-Fab Research, Rome, Italy) and tested for their inhibitory activity against DPP-IV, α-glucosidase, and α-amylase. The assays were carried out as reported in Section 2.3. The results were expressed as IC50 values.

[6] = design: method as in PMID 16899668, doi:10.1016/j.foodres.2015.12.007; conditions: spontaneously hypertensive rats; ref [48],[49]; cited from earlier work
yeast α-glucosidase = yeast α-glucosidase (Saccharomyces cerevisiae, UniProt P53341); experiment: α-Glucosidase assay; format: biochemical; conditions: for inhibition at 1000 µM: read-out: percentage of inhibition of α-glucosidase; for IC50: synthetic peptides, n.a. = not active
Sequence of yeast α-glucosidase (P53341 whole entry): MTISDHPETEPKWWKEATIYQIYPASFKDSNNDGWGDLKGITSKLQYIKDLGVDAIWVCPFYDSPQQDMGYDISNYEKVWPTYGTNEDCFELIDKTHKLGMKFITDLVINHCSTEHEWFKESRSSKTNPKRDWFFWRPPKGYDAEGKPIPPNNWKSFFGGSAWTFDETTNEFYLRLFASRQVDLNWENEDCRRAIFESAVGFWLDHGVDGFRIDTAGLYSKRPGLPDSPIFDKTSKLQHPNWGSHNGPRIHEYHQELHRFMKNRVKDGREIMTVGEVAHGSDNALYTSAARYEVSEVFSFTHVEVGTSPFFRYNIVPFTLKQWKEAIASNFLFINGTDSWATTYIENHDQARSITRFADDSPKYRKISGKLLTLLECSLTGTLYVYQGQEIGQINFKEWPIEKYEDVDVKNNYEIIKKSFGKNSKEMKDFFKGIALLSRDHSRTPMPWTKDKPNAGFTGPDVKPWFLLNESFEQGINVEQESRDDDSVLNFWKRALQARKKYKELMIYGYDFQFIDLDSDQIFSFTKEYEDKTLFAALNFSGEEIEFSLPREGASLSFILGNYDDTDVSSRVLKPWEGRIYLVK
Description: α-Glucosidase assay was performed as reported in Bellesia et al., adapted to a microplate reader. The reaction was performed by mixing 66.7 μL of potassium phosphate buffer (67 mmol/L, pH 6.8), 3.3 μL of glutathione 3 mmol/L, 20 μL of different concentrations of water-soluble low-molecular weight peptide extracts, and 5 μL of yeast α-glucosidase 0.2 U/mL. After 20 min of incubation at 37 °C, the reaction was started by the addition of 5 μL of p-nitrophenyl-glucose 5 mmol/L. After a further 20 min of incubation at 37 °C, the reaction was stopped by the addition of 150 μL of Na2CO3 100 mmol/L. The amount of released p-nitrophenol was determined by reading at 405 nm with a microplate reader. Results were expressed as IC50 as reported above.
as §1

α-glucosidase = conditions: cited from earlier work

YLEQLLR [αS1-casein f(94–100)]
Bioactivity: Anti-microbial [1]: Anti-microbial

FVAP (UniProt P02662 39-42, looked up, fragment) [αS1-casein f(24–27)]
Bioactivity: ACE-inhibition [2]: ACE-inhibition

VLP
Bioactivity: ACE-inhibition [2]: ACE-inhibition

VVPP (UniProt P02666 98-101, looked up, fragment) [β-casein f(83–86)]
Bioactivity: ACE-inhibition [2]: ACE-inhibition

IPPL (UniProt P02666 89-92, looked up, fragment) [β-casein f(74–77)]
Bioactivity: DPP-IV-inhibition (DPP-IV): DPP-IV-inhibition | IC50 (DPP-IV): 429 µM

DKIHPF (UniProt P02666 62-67, looked up, fragment) [β-casein f(47–52)]
Bioactivity: ACE-inhibition [2]: ACE-inhibition

FGK (UniProt P02662 47-49, looked up, fragment) [αS1-casein f(32–34)]
Bioactivity: ACE-inhibition [2]: ACE-inhibition

VEP (UniProt P02666 131-133, looked up, fragment) [β-casein f(116–118)]
Bioactivity: ACE-inhibition [2]: ACE-inhibition

LLY (UniProt P02666 206-208, looked up, fragment) [β-casein f(191–193)]
Bioactivity: Antioxidant [3]: Antioxidant | Bioactivity: Immunomodulation [4]: Immunomodulation | Bioactivity: Anti-inflammatory [5]: Anti-inflammatory

FFVAP (UniProt P02662 38-42, looked up, fragment) [αS1-casein f(23–27)]
Bioactivity: ACE-inhibition [2]: ACE-inhibition

IVP (UniProt P02662 86-88, looked up, fragment) [αS1-casein f(71–73)]
Bioactivity: ACE-inhibition [2]: ACE-inhibition

YQGPIVLNPWDQVKR [αS2-casein f(100–114)]
Bioactivity: Immunomodulation [4]: Immunomodulation | Bioactivity: Anti-microbial [1]: Anti-microbial | Bioactivity: ACE-inhibition [2]: ACE-inhibition

QGPIVLNPWDQVKR [αS2-casein f(101–114)]
Bioactivity: Antioxidant [3]: Antioxidant

WIQP (UniProt P02663 208-211, looked up, fragment) [αS2-casein f(193–196)]
Bioactivity: DPP-IV-inhibition (DPP-IV): DPP-IV-inhibition | IC50 (DPP-IV): 237 µM | Bioactivity: ACE-inhibition [2]: ACE-inhibition

YLG (UniProt P02662 106-108, looked up, fragment) [αS1-casein f(91–93)]
Bioactivity: Antioxidant [3]: Antioxidant

LVYPFPGP [β-casein f(58–65)]
Bioactivity: ACE-inhibition [2]: ACE-inhibition

PGPIP (UniProt P02666 78-82, looked up, fragment) [β-casein f(63–67)]
Bioactivity: ACE-inhibition [2]: ACE-inhibition

GTQY (UniProt P02662 185-187, looked up, fragment) [αS1-casein f(170–172)]
Bioactivity: Antioxidant [3]: Antioxidant | Bioactivity: ACE-inhibition [2]: ACE-inhibition

CC(C)C[C@H](N)C(=O)N1CCC[C@H]1C(=O)N1CCC[C@H]1C(=O)N[C@H](C(=O)O)[C@@H](C)O [LPPT] (H-LPPT-OH)
IC50 (rat intestinal DPP-IV): 495.3 ± 3.6 µM

LPLP (UniProt P02666 150-153, looked up, fragment) [β-casein f(135–138)]
effect on systolic blood pressure [6]: powerful decreasing agents of systolic blood pressure | Bioactivity: ACE-inhibition [2]: ACE-inhibition | IC50 values against ACE [2]: low

VVPPF [VVPPF]
IC50 (rat intestinal DPP-IV): 699 ± 11.1 µM | inhibition at 1000 µM (yeast α-glucosidase): 22 ± 1.3% | IC50 (yeast α-glucosidase): > 1 mM

LPQ
Bioactivity: DPP-IV-inhibition (DPP-IV): DPP-IV-inhibition | IC50 (DPP-IV): 82 µM

LHLPLP (UniProt P02666 148-153, looked up, fragment) [β-casein f(133–138)]
effect on systolic blood pressure [6]: powerful decreasing agents of systolic blood pressure | Bioactivity: ACE-inhibition [2]: ACE-inhibition | IC50 values against ACE [2]: low

O=C(O)[C@H](Cc1ccccc1)NC(=O)[C@@H]1CCCN1C(=O)[C@@H]1CCCN1 [PPF] (H-Pro-Pro-Phe-OH)
IC50 (rat intestinal DPP-IV): 142 ± 1.7 µM | inhibition at 1000 µM (yeast α-glucosidase): 8.8 ± 1.3% | IC50 (yeast α-glucosidase): > 1 mM

YQEP (UniProt P02666 208-211, looked up, fragment) [β-casein f(193–196)]
Bioactivity: ACE-inhibition [2]: ACE-inhibition

PFP (UniProt P02666 76-78, looked up, fragment) [β-casein f(61–63)]
Bioactivity: α-glucosidase inhibition (α-glucosidase; ref BIOPEP database and Milk Bioactive Peptides Database): α-glucosidase inhibition | IC50 (α-glucosidase; ref [53], read-out: IC50 α-glucosidase, previously reported): 8.6 mM | Bioactivity: ACE-inhibition [2]: ACE-inhibition

TVY (UniProt P02663 197-199, looked up, fragment) [αS2-casein f(182–184)]
Bioactivity: ACE-inhibition [2]: ACE-inhibition

PEL (UniProt P02662 162-164, looked up, fragment) [αS1-casein f(147–149)]
Bioactivity: Antioxidant [3]: Antioxidant

DKIHP (UniProt P02666 62-66, looked up, fragment) [β-casein f(47–51)]
Bioactivity: ACE-inhibition [2]: ACE-inhibition

YLGY (UniProt P02662 106-109, looked up, fragment) [αS1-casein f(91–94)]
Bioactivity: Antioxidant [3]: Antioxidant | Bioactivity: ACE-inhibition [2]: ACE-inhibition

PLW (UniProt P02662 212-214, looked up, fragment) [αS1-casein f(197–199)]
Bioactivity: ACE-inhibition [2]: ACE-inhibition

QEPV (UniProt P02666 209-212, looked up, fragment) [β-casein f(194–197)]
Bioactivity: Immunomodulation [4]: Immunomodulation

YQL (UniProt P02662 169-171, looked up, fragment) [αS1-casein f(154–156)]
Bioactivity: Antioxidant [3]: Antioxidant

DVPSERYLG [αS1-casein f(85–93)]
Bioactivity: ACE-inhibition [2]: ACE-inhibition

YQEPVLGPVRGPFPIIV [β-casein f(193–209)]
Bioactivity: Anti-microbial [1]: Anti-microbial | Bioactivity: ACE-inhibition [2]: ACE-inhibition

RELEEL (UniProt P02666 16-21, looked up, fragment) [β-casein f(1–6)]
Bioactivity: Antioxidant [3]: Antioxidant

LNF (UniProt P02663 176-178, looked up, fragment) [αS2-casein f(161–163)]
Bioactivity: ACE-inhibition [2]: ACE-inhibition

TEDELQDKIHPF [β-casein f(41–52)]
Bioactivity: Anti-microbial [1]: Anti-microbial

QGP (UniProt P02663 116-118, looked up, fragment) [αS2-casein f(101–103)]
Bioactivity: ACE-inhibition [2]: ACE-inhibition

IPPLTQTPV [β-casein f(74–82)]
Bioactivity: DPP-IV-inhibition (DPP-IV): DPP-IV-inhibition | IC50 (DPP-IV): 465 µM

APFPE [APFPE]
IC50 (rat intestinal DPP-IV): 49.5 ± 0.5 µM

TKVIPYVRYL [αS2-casein f(198–207)]
Bioactivity: Anti-microbial [1]: Anti-microbial

VVVPPF [VVVPPF]
IC50 (rat intestinal DPP-IV): 610 ± 13.6 µM | inhibition at 1000 µM (yeast α-glucosidase): 22.5 ± 1% | IC50 (yeast α-glucosidase): > 1 mM

EMPFPK (UniProt P02666 123-128, looked up, fragment) [β-casein f(108–113)]
Bioactivity: Anti-microbial [1]: Anti-microbial | Bioactivity: ACE-inhibition [2]: ACE-inhibition

PFPE (UniProt P02662 42-45, looked up, fragment) [αS1-casein f(27–30)]
Bioactivity: ACE-inhibition [2]: ACE-inhibition

LVYPFP (UniProt P02666 73-78, looked up, fragment) [β-casein f(58–63)]
Bioactivity: ACE-inhibition [2]: ACE-inhibition

LEE (UniProt P02666 18-20, looked up, fragment) [β-casein f(3–5)]
Bioactivity: ACE-inhibition [2]: ACE-inhibition

ENLLRF (UniProt P02662 33-38, looked up, fragment) [αS1-casein f(18–23)]
Bioactivity: ACE-inhibition [2]: ACE-inhibition

SLPQ (UniProt P02666 84-87, looked up, fragment) [β-casein f(69–72)]
Bioactivity: ACE-inhibition [2]: ACE-inhibition

PGPIPN (UniProt P02666 78-83, looked up, fragment) [β-casein f(63–68)]
Bioactivity: Immunomodulation [4]: Immunomodulation | Bioactivity: Anti-inflammatory [5]: Anti-inflammatory | Bioactivity: ACE-inhibition [2]: ACE-inhibition
